≈ marks a conversion by molar mass, not a printed value. Where two headings read alike, the source gives them in different places.
Columns and labels:
[1] = Cytotoxicity assay (CCK-8), HepG2; type: cell-based; conditions: human, HepG2 cells
Procedure: Cytotoxicity of EDT and tiamulin was studied against human hepatocellular carcinoma cells (HepG2) and human embryonic kidney 293T (HEK293T) cells following a protocol as published in our earlier reports[41],[42]. Cells were counted and inoculated into 96-well plates with approximately10^5 cells density for incubating 24 h at 37 °C. […] The same procedure was repeated three times. The percentages of cell viability were calculated by the formula: Cell viability (%) = [Asample ‒ Anegative]/[Apositve ‒ Anegative] × 100%.

[2] = test system: clinical isolates of MRSA; test: MIC by broth serial-dilution against 48 clinical isolates of MRSA; type: cell-based, methicillin-resistant Staphylococcus aureus
Procedure: The tests against 48 clinical isolates of MRSA from dairy farms in 4 different provinces in China[37] were conducted in triplicate, using broth serial-dilution method in 96-well plates according to CLSI reference methods. Briefly, EDT and tiamulin fumarate used as referent drug were dissolved in 25% dimethyl sulfoxide (DMSO) to a solution with concentration of 64 μg/mL. The obtained 100 μL solutions were then added into the first column of the 96-well plate, and diluted to the tenth well with serial twofold dilutions. The last two wells were used as positive controls. The 100 μL bacterial suspension was diluted in MHB to give a final organism density of to 10^5 ~ 10^6 colony-forming unit (CFU) per 1 mL and added to all the wells, followed by incubating at 37 °C for 24 h. […] The results were expressed as an average of the MICs obtained from three independent experiments.

[3] = test system: GFP expression in S. aureus ATCC 29,213; test: Green fluorescent protein (GFP) inhibition assay; type: cell-based, Staphylococcus aureus; conditions: 1 and 4 μM, co-incubation 4 h, fluorescence microscopy
Procedure: The inhibition assay against GFP expression was performed according to our previous report[41] with minor modification. Plasmids carried erythromycin resistant genes were labeled with GFP and electrotransformed into S. aureus. After screenings using erythromycin, S. aureus strain expressing GFP was then obtained and grown to mid-logarithmic phase, followed by collecting centrifugally and re-suspending with PBS buffer. The obtained suspensions were co-incubated with EDT and tiamulin with the final concentrations of 1 and 4 μM, respectively, for 4 h at 37 °C. The cells were subsequently collected by centrifugation to perform imaging using fluorescence microscopy after re-suspending with PBS buffer.

[4] = test system: MRSA-337371; test: Post-antibiotic effect (PAE) test, viable counting; type: cell-based, methicillin-resistant Staphylococcus aureus; conditions: 1 h exposure
Procedure: The PAE of EDT against MRSA-337371 was determined using a standard viable counting method. We selected 1 × , 2 × , 4 × and 8 × MICs of EDT and tiamulin (0.0313 and 0.5 μg/mL, respectively), to conduct PAE test on MRSA strains. The strains (1 × 10^5 CFU/mL) were placed in MHB broth test tubes containing the above four concentrations of EDT and tiamulin, respectively, and cultured in a shaking bed at 37 °C for 1 h, followed by centrifuging for 10 min at 4000 r/min. The supernatants were discarded and the precipitations were dissolved with 2 mL normal saline to centrifuge. The same procedure was repeated three times. The final bacterial precipitates were taken and cultured in MHB broth with the initial concentration of 5.5 Log CFU/mL at 37 °C in a shaking bed. Samples were then taken at 0, 1, 2, 3, 4, 5, 6, 8, 12, 18 and 24 h to dilute 10–100,000 times and the 10 μL dilutions were evenly smear on MHA plate medium to culture at 37 °C for 48 h. Finally, the average numbers of colonies on the plates were obtained and the PAE values were calculated as hour using equation PAE = T − C, in which T was the time required for the increase of 1 log10 CFU/mL after the removal of drugs and C was the time required for the number of MRSA in the control tube to increase by 1 log10 CFU/mL. Experiments were performed in triplicate.

With `C=CC1(C)CC(OC(=O)CSc2nc(C)c(C(=O)OCC)c(C)n2)C2(C)C(C)CCC3(CCC(=O)C32)C(C)C1O` (stereo not shown) [EDT, 14-O-[(5-ethoxycarbonyl-4,6-dimethylpyrimidine-2-yl)thioacetyl] mutilin] the viability at 6 h, 100 µM ([1]; HepG2, 100 μM, read-out: cell viability) was 99.7%, the CC50 at 6 h ([1]; HepG2, 200 μM converted to μg/mL) was greater than 115 µg/mL and the viability at 6 h, 200 µM ([1]; HepG2, 200 μM, read-out: cell viability) was 77.5%. For the same compound, the CC50 at 6 h ([1]; HepG2, deduced from Fig. 5) was greater than 200 µM, the MIC ([2]; Staphylococcus aureus, MRSA, read-out: MIC values against 48 strains, range over 48 clinical isolates of MRSA) was 0.0313 to 0.0625 µg/mL (≈ 0.0546 to 0.109 µM) and the inhibition at 0.0625 µg/mL ([2]; Staphylococcus aureus, MRSA, read-out: strains inhibited) was 97.9%. It also gave an MIC ([2]; Staphylococcus aureus, MRSA, strain CX1) of 0.0313 µg/mL (≈ 0.0546 µM), an MIC ([2]; Staphylococcus aureus, MRSA, strain CX2) of 0.0313 µg/mL (≈ 0.0546 µM) and an MIC ([2]; Staphylococcus aureus, MRSA, strain CX5) of 0.0313 µg/mL (≈ 0.0546 µM). For the same compound, the MIC ([2]; Staphylococcus aureus, MRSA, strain CX6) was 0.0313 µg/mL (≈ 0.0546 µM), the MIC ([2]; Staphylococcus aureus, MRSA, strain CX7) was 0.0625 µg/mL (≈ 0.109 µM) and the MIC ([2]; Staphylococcus aureus, MRSA, strain CX9) was 0.125 µg/mL (≈ 0.218 µM). The MIC ([2]; Staphylococcus aureus, MRSA, strain HG1) was 0.0313 µg/mL (≈ 0.0546 µM), the MIC ([2]; Staphylococcus aureus, MRSA, strain HG2) was 0.0313 µg/mL (≈ 0.0546 µM) and the MIC ([2]; Staphylococcus aureus, MRSA, strain HG3) was 0.0313 µg/mL (≈ 0.0546 µM). For the same compound, the MIC ([2]; Staphylococcus aureus, MRSA, strain HG4) was 0.0313 µg/mL (≈ 0.0546 µM), the MIC ([2]; Staphylococcus aureus, MRSA, strain HG5) was 0.0313 µg/mL (≈ 0.0546 µM) and the MIC ([2]; Staphylococcus aureus, MRSA, strain HG6) was 0.0313 µg/mL (≈ 0.0546 µM). It also gave an MIC ([2]; Staphylococcus aureus, MRSA, strain HG7) of 0.0625 µg/mL (≈ 0.109 µM), an MIC ([2]; Staphylococcus aureus, MRSA, strain QY4) of 0.0313 µg/mL (≈ 0.0546 µM) and an MIC ([2]; Staphylococcus aureus, MRSA, strain QY5) of 0.0313 µg/mL (≈ 0.0546 µM). For the same compound, the MIC ([2]; Staphylococcus aureus, MRSA, strain QY6) was 0.0625 µg/mL (≈ 0.109 µM), the MIC ([2]; Staphylococcus aureus, MRSA, strain QY8) was 0.0313 µg/mL (≈ 0.0546 µM) and the MIC ([2]; Staphylococcus aureus, MRSA, strain QY10) was 0.0625 µg/mL (≈ 0.109 µM). It also gave an MIC ([2]; Staphylococcus aureus, MRSA, strain SH3) of 0.0313 µg/mL (≈ 0.0546 µM), an MIC ([2]; Staphylococcus aureus, MRSA, strain SH4) of 0.0313 µg/mL (≈ 0.0546 µM) and an MIC ([2]; Staphylococcus aureus, MRSA, strain SH6) of 0.0313 µg/mL (≈ 0.0546 µM). For the same compound, the MIC ([2]; Staphylococcus aureus, MRSA, strain SH7) was 0.0625 µg/mL (≈ 0.109 µM), the MIC ([2]; Staphylococcus aureus, MRSA, strain SH8) was 0.0313 µg/mL (≈ 0.0546 µM) and the MIC ([2]; Staphylococcus aureus, MRSA, strain SH9) was 0.0313 µg/mL (≈ 0.0546 µM). For the same compound, the MIC ([2]; Staphylococcus aureus, MRSA, strain SH10) was 0.0313 µg/mL (≈ 0.0546 µM), the MIC ([2]; Staphylococcus aureus, MRSA, strain SH11) was 0.0313 µg/mL (≈ 0.0546 µM) and the MIC ([2]; Staphylococcus aureus, MRSA, strain SH12) was 0.0313 µg/mL (≈ 0.0546 µM). The MIC ([2]; Staphylococcus aureus, MRSA, strain SH13) was 0.0313 µg/mL (≈ 0.0546 µM), the MIC ([2]; Staphylococcus aureus, MRSA, strain SH14) was 0.0313 µg/mL (≈ 0.0546 µM) and the MIC ([2]; Staphylococcus aureus, MRSA, strain SH15) was 0.0313 µg/mL (≈ 0.0546 µM). The MIC ([2]; Staphylococcus aureus, MRSA, strain SX5) was 0.0313 µg/mL (≈ 0.0546 µM), the MIC ([2]; Staphylococcus aureus, MRSA, strain SX6) was 0.0313 µg/mL (≈ 0.0546 µM) and the MIC ([2]; Staphylococcus aureus, MRSA, strain SX7) was 0.0313 µg/mL (≈ 0.0546 µM). It also gave an MIC ([2]; Staphylococcus aureus, MRSA, strain SX8) of 0.0313 µg/mL (≈ 0.0546 µM), an MIC ([2]; Staphylococcus aureus, MRSA, strain SX9) of 0.0313 µg/mL (≈ 0.0546 µM) and an MIC ([2]; Staphylococcus aureus, MRSA, strain SX10) of 0.0313 µg/mL (≈ 0.0546 µM). For the same compound, the MIC ([2]; Staphylococcus aureus, MRSA, strain SX16) was 0.0625 µg/mL (≈ 0.109 µM), the MIC ([2]; Staphylococcus aureus, MRSA, strain SX17) was 0.0313 µg/mL (≈ 0.0546 µM) and the MIC ([2]; Staphylococcus aureus, MRSA, strain SX18) was 0.0313 µg/mL (≈ 0.0546 µM). For the same compound, the MIC ([2]; Staphylococcus aureus, MRSA, strain ZY1) was 0.0313 µg/mL (≈ 0.0546 µM), the MIC ([2]; Staphylococcus aureus, MRSA, strain ZY2) was 0.0313 µg/mL (≈ 0.0546 µM) and the MIC ([2]; Staphylococcus aureus, MRSA, strain ZY3) was 0.0313 µg/mL (≈ 0.0546 µM). The MIC ([2]; Staphylococcus aureus, MRSA, strain ZY4) was 0.0313 µg/mL (≈ 0.0546 µM), the MIC ([2]; Staphylococcus aureus, MRSA, strain ZY5) was 0.0313 µg/mL (≈ 0.0546 µM) and the MIC ([2]; Staphylococcus aureus, MRSA, strain ZY6) was 0.0313 µg/mL (≈ 0.0546 µM). The MIC ([2]; Staphylococcus aureus, MRSA, strain ZY7) was 0.0313 µg/mL (≈ 0.0546 µM), the MIC ([2]; Staphylococcus aureus, MRSA, strain ZY8) was 0.0625 µg/mL (≈ 0.109 µM) and the MIC ([2]; Staphylococcus aureus, MRSA, strain ZY9) was 0.0313 µg/mL (≈ 0.0546 µM). The “MIC values against 48 strains” value ([2]; range over 48 clinical isolates of MRSA) was 0.0313 to 0.125 µg/mL, the “inhibition of GFP expression (green fluorescence intensity)” value [3] was “effectively inhibited the expression of GFP” and the “PAE values, concentration dependence” value ([4]; 1×, 2×, 4× and 8× MIC) was “increased PAE values in a concentration-dependent manner”. For the same compound, the “PAE values compared with tiamulin” value ([4]; at four tested concentrations (1×, 2×, 4×, 8× MIC)) was “extremely significantly higher than that of tiamulin”.

Reference: publication PMC10502144, “Anti-methicillin-resistant Staphylococcus aureus activity and safety evaluation of 14-O-[(5-ethoxycarbonyl-4,6-dimethylpyrimidine-2-yl) thioacetyl] mutilin (EDT)” (Scientific Reports, 2023)
